“And” between values parts separate entries of the source, which are not always exact repeats. Identical values can stand only once. Toxic doses and inconclusive results are not listed.
System: BDF1 mice, B16 melanoma ip, median survival T/C
Experiment: NCI In Vivo Anticancer Drug Screen. Data for tumor model B16 Melanoma (intraperitoneal) in B6D2F1 (BDF1) mice
Conditions: endpoint: median survival time, higher = longer survival
Outline: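 Vehicle-treated animals serve as the reference (C); treated animals (T) are scored for survival or tumor size after tumor transplantation.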

[1] = dose: 100.0 mg/kg/injection, schedule: Q01DX009 (ip), vehicle: Klucel (hydroxypropylcellulose) (HPC)
[2] = dose: 200.0 mg/kg/injection, schedule: Q01DX009 (ip), vehicle: Klucel (hydroxypropylcellulose) (HPC)
[3] = dose: 400.0 mg/kg/injection, schedule: Q01DX009 (ip), vehicle: Klucel (hydroxypropylcellulose) (HPC)
[4] = dose: 6.25 mg/kg/injection, schedule: Q01DX009 (ip), vehicle: saline with Tween-80
[5] = dose: 12.5 mg/kg/injection, schedule: Q01DX009 (ip), vehicle: saline with Tween-80
[6] = dose: 25.0 mg/kg/injection, schedule: Q01DX009 (ip), vehicle: saline with Tween-80
[7] = dose: 25.0 mg/kg/injection, schedule: Q01DX009 (ip), vehicle: Klucel (hydroxypropylcellulose) (HPC)
[8] = dose: 50.0 mg/kg/injection, schedule: Q01DX009 (ip), vehicle: Klucel (hydroxypropylcellulose) (HPC)

O=NN(CCCl)C(=O)NC1CCCCC1
T/C (dose: 4.0 mg/kg/injection, schedule: Q01DX001 (ip), vehicle: Klucel (hydroxypropylcellulose) (HPC)): 102 % of control and 121 % of control
T/C (dose: 4.0 mg/kg/injection, schedule: Q01DX001 (ip), vehicle: saline): 107 % of control
T/C (dose: 7.5 mg/kg/injection, schedule: Q01DX001 (ip), vehicle: other): 107 % of control
T/C (dose: 8.0 mg/kg/injection, schedule: Q01DX001 (ip), vehicle: Klucel (hydroxypropylcellulose) (HPC)): 102 % of control
T/C (dose: 12.5 mg/kg/injection, schedule: Q01DX010 (ip), vehicle: saline): 115 % of control
T/C (dose: 25.0 mg/kg/injection, schedule: Q01DX010 (ip), vehicle: saline): 110 % of control
T/C (dose: 30.0 mg/kg/injection, schedule: Q01DX001 (ip), vehicle: other): 198 % of control
T/C (dose: 32.0 mg/kg/injection, schedule: Q01DX001 (ip), vehicle: Klucel (hydroxypropylcellulose) (HPC)): 182 % of control and 312 % of control
T/C (dose: 50.0 mg/kg/injection, schedule: Q01DX010 (ip), vehicle: saline): 113 % of control
T/C (dose: 100.0 mg/kg/injection, schedule: Q01DX010 (ip), vehicle: saline): 102 % of control

CN(C)CC1CCCCN1 (centres undefined)
T/C (dose: 50.0 mg/kg/injection, schedule: Q01DX009 (ip), vehicle: saline): 100 % of control
T/C (dose: 100.0 mg/kg/injection, schedule: Q01DX009 (ip), vehicle: saline): 100 % of control
T/C (dose: 200.0 mg/kg/injection, schedule: Q01DX009 (ip), vehicle: saline): 100 % of control

C/C=C/C(=O)OC(C)CCC(CC)CCCC (centres undefined)
T/C [1]: 90 % of control
T/C [2]: 90 % of control
T/C [3]: 90 % of control

COc1cccc(CNc2ccc(C)cc2C)c1OC
T/C [1]: 96 % of control
T/C [2]: 103 % of control
T/C [3]: 96 % of control

O=C(CCl)Nc1cc(C(F)(F)F)ccc1Cl
T/C [4]: 103 % of control
T/C [5]: 95 % of control
T/C [6]: 93 % of control

O=S(=O)(O)O.[NH-]C1CCCCC1[NH-].[Pt+2] (centres undefined)
T/C (dose: 0.32 mg/kg/injection, schedule: Q01DX009 (ip), vehicle: water): 156 % of control and 167 % of control
T/C (dose: 0.63 mg/kg/injection, schedule: Q01DX009 (ip), vehicle: dextrose): 175 % of control
T/C (dose: 0.63 mg/kg/injection, schedule: Q04DX003 (ip), vehicle: water): 160 % of control
T/C (dose: 1.25 mg/kg/injection, schedule: Q01DX009 (ip), vehicle: dextrose): 163 % of control
T/C (dose: 1.25 mg/kg/injection, schedule: Q04DX003 (ip), vehicle: water): 163 % of control
T/C (dose: 3.0 mg/kg/injection, schedule: Q01DX009 (ip), vehicle: water): 150 % of control
T/C (dose: 4.0 mg/kg/injection, schedule: Q01DX009 (ip), vehicle: water): 150 % of control
T/C (dose: 5.0 mg/kg/injection, schedule: Q04DX003 (ip), vehicle: water): 155 % of control

CCCCCC(=O)c1ccc(O)cc1O
T/C (dose: 12.5 mg/kg/injection, schedule: Q01DX009 (ip), vehicle: gum acacia): 102 % of control
T/C (dose: 25.0 mg/kg/injection, schedule: Q01DX009 (ip), vehicle: gum acacia): 89 % of control

COC(=O)C(F)C(Br)C(=O)OC (centres undefined)
T/C (dose: 3.12 mg/kg/injection, schedule: Q01DX009 (ip), vehicle: saline with Tween-80): 105 % of control
T/C [4]: 99 % of control
T/C [5]: 94 % of control
T/C [6]: 99 % of control
T/C (dose: 50.0 mg/kg/injection, schedule: Q01DX009 (ip), vehicle: saline with Tween-80): 98 % of control

S=C1SCN(Cc2ccccc2)CN1Cc1ccccc1
T/C [7]: 102 % of control and 120 % of control
T/C [8]: 102 % of control and 108 % of control
T/C [1]: 90 % of control and 97 % of control and 105 % of control

O=c1[nH]cnc2nc(/N=N/SCCO)[nH]c12
T/C [7]: 100 % of control
T/C [8]: 103 % of control
T/C [1]: 101 % of control
T/C [2]: 98 % of control
